Reference: ChEMBL document CHEMBL1152711, “Synthesis and SAR of potent LXR agonists containing an indole pharmacophore” (Bioorg Med Chem Lett, 2009)

Assays:
[1] = molecular target: T1, Oxysterols receptor LXR-alpha (Homo sapiens) (UniProt Q13133); test: Agonist activity at LXRalpha by FRET assay relative to GW-3965A; format: functional
T1 sequence (whole entry): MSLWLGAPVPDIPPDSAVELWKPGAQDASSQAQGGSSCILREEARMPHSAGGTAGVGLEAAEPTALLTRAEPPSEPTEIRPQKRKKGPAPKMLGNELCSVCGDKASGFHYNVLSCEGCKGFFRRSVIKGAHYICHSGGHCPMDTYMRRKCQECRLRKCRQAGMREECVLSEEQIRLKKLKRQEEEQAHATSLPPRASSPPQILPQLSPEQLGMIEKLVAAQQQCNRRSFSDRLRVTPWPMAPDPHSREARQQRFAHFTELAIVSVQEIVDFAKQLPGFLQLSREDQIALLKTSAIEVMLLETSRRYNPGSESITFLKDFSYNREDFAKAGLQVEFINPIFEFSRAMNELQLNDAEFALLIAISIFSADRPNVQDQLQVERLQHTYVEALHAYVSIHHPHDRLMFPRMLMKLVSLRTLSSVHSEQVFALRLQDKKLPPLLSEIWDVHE

[2] = molecular target: T2, Oxysterols receptor LXR-alpha (Homo sapiens, UniProt Q13133); test: Agonist activity at LXRalpha by FRET assay; format: functional
T2 sequence (Q13133 whole entry): T1 sequence (whole entry)

[3] = molecular target: T3, Oxysterols receptor LXR-beta (Homo sapiens, UniProt P55055); test: Agonist activity at LXRbeta by FRET assay; format: functional
T3 sequence (P55055 whole entry): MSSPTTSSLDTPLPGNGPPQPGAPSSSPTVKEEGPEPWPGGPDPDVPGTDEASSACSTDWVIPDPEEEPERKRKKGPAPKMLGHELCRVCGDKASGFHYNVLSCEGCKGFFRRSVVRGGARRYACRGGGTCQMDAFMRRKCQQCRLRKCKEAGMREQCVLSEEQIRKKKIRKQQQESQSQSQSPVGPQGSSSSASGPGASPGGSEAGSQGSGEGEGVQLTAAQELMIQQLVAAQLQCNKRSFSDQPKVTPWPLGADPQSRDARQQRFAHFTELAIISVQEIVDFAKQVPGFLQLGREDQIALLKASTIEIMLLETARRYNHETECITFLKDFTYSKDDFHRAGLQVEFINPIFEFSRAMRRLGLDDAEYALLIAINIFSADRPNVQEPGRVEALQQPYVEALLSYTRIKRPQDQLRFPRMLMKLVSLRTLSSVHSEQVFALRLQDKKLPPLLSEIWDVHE

[4] = molecular target: T4, Oxysterols receptor LXR-beta (Homo sapiens) (UniProt P55055); test: Agonist activity at LXRbeta by FRET assay relative to GW-3965A; format: functional; parameters: concentration or dose not given beside the values
T4 sequence (whole entry): T3 sequence (P55055 whole entry)

Mus musculus = species on record: Mus musculus; test: Increase in ABCA1 expression in mouse macrophages by cholesterol efflux assay
[5] = Plasma clearance in Sprague-Dawley rat at 1.1 mg/kg, iv or 2.1 mg/kg, po; format: ADME, organism-based
[6] = Volume of distribution at steady state in Sprague-Dawley rat at 1.1 mg/kg, iv or 2.1 mg/kg, po; format: ADME, organism-based; conditions: in vivo, read-out: Vdss
[7] = Half life in Sprague-Dawley rat at 1.1 mg/kg, iv; format: ADME, organism-based; parameters: dose 1.1 mg/kg, route intravenous; conditions: in vivo
[8] = Cmax in Sprague-Dawley rat at 2.1 mg/kg, po; format: ADME, organism-based; parameters: dose 2.1 mg/kg, route oral; conditions: in vivo
[9] = Half life in Sprague-Dawley rat at 2.1 mg/kg, po; format: ADME, organism-based; parameters: dose 2.1 mg/kg, route oral; conditions: in vivo
[10] = Oral bioavailability in Sprague-Dawley rat at 2.1 mg/kg; format: ADME, organism-based; conditions: in vivo

SMILES: CS(=O)(=O)n1ccc2c(OCCCN(Cc3cccc(C(F)(F)F)c3Cl)CC(c3ccccc3)c3ccccc3)cccc21
- Activity [1]: 50%
- EC50 [2]: 20 nM
- EC50 [3]: 7 nM
- Activity [4]: 72%

SMILES: Cc1cc(OCCCN(Cc2cccc(C(F)(F)F)c2Cl)CC(c2ccccc2)c2ccccc2)n2ncnc2n1
- Activity [1]: 25%
- EC50 [2]: 790 nM
- EC50 [3]: 560 nM
- Activity [4]: 33%

SMILES: FC(F)(F)c1cccc(CN(CCCOc2ccc3[nH]ccc3c2)CC(c2ccccc2)c2ccccc2)c1Cl
- Activity [1]: 36%
- EC50 [2]: 226 nM
- EC50 [3]: 23 nM
- Activity [4]: 78%

SMILES: O=C(O)Cc1cccc(OCCCN(Cc2cccc(C(F)(F)F)c2Cl)CC(c2ccccc2)c2ccccc2)c1
- EC50 [3]: 25 nM
- EC50 (Mus musculus): 50 nM

SMILES: COC(=O)Cc1c[nH]c2ccc(OCCCN(Cc3cccc(C(F)(F)F)c3Cl)CC(c3ccccc3)c3ccccc3)cc12
- Activity [1]: 19%
- EC50 [2]: 630 nM
- EC50 [3]: 288 nM
- Activity [4]: 36%

SMILES: Cn1ccc2c(OCCCN(Cc3cccc(C(F)(F)F)c3Cl)CC(c3ccccc3)c3ccccc3)cccc21
- Activity [1]: 57%
- EC50 [2]: 39 nM
- EC50 [3]: 12 nM
- Activity [4]: 86%

SMILES: Cc1cc(OCCCN(Cc2cccc(C(F)(F)F)c2Cl)CC(c2ccccc2)c2ccccc2)n[nH]1
- Activity [1]: 25%
- EC50 [2]: 23 nM
- EC50 [3]: 15 nM
- Activity [4]: 30%

SMILES: COC(=O)c1cc(OCCCN(Cc2cccc(C(F)(F)F)c2Cl)CC(c2ccccc2)c2ccccc2)no1
- Activity [1]: 65%
- EC50 [2]: 63 nM
- EC50 [3]: 26 nM
- Activity [4]: 68%

SMILES: Cc1cc(C)c2c(OCCCN(Cc3cccc(C(F)(F)F)c3Cl)CC(c3ccccc3)c3ccccc3)n[nH]c2n1
- EC50 [2]: > 3000 nM
- EC50 [3]: 510 nM
- Activity [4]: 25%

SMILES: O=C(O)Cn1ccc2c(OCCCN(Cc3cccc(C(F)(F)F)c3Cl)CC(c3ccccc3)c3ccccc3)cccc21
- Activity [1]: 132%
- EC50 [2]: 14 nM
- EC50 [3]: 4 nM
- Activity [4]: 105%
- clearance [5]: 14.6 mL/min/kg
- Vd [6]: 1.15 L/kg
- half-life [7]: 1.35 h
- Cmax [8]: 1810 ng/mL
- half-life [9]: 2.9 h
- bioavailability [10]: 45.4%
- EC50 (Mus musculus): 15 nM

SMILES: FC(F)(F)c1cccc(CN(CCCOc2n[nH]c3ccccc23)CC(c2ccccc2)c2ccccc2)c1Cl
- Activity [1]: 17%
- EC50 [2]: 110 nM
- EC50 [3]: 60 nM
- Activity [4]: 44%

SMILES: FC(F)(F)c1cccc(CN(CCCOc2cccc3[nH]ccc23)CC(c2ccccc2)c2ccccc2)c1Cl
- Activity [1]: 90%
- EC50 [2]: 60 nM
- EC50 [3]: 15 nM
- Activity [4]: 104%
- EC50 (Mus musculus): 5 nM
